The record followed here is patent publication US11530210B2, “Substituted heteroaromatic pyrazolo-pyridines and their use as GLUN2B receptor modulators” (JANSSEN PHARMACEUTICA NV, priority 2019, dated 2022).

This assay has as its target T1, human GluN1/GluN2B NMDA receptors (Homo sapiens, UniProt Q13224).
T1 construct: expressed in transfected cells
As to the kind of experiment: Calcium flux (FLIPR) assay on cloned human NR1/GluN2B ion channels expressed in mammalian cells (standard and HTS variants). The format is cell-based. The conditions noted are these: cells expressing human GluN1/GluN2B, glutamate and glycine co-agonists. The method, boiled down: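 Calcium influx read by FLIPR after co-agonist addition (glycine 10 μM, glutamate near EC40) following 5 min compound preincubation, with signal normalized to control wells.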
For orientation: Calcium assays in cells follow changes in intracellular calcium, usually with a dye or a luminescent sensor.

Where a name gives a salt, the structure may show the parent alone. A value given as a limit tells only on which side of the number the result lay.

T1 sequence (Q13224 27-1484, other chains not shown): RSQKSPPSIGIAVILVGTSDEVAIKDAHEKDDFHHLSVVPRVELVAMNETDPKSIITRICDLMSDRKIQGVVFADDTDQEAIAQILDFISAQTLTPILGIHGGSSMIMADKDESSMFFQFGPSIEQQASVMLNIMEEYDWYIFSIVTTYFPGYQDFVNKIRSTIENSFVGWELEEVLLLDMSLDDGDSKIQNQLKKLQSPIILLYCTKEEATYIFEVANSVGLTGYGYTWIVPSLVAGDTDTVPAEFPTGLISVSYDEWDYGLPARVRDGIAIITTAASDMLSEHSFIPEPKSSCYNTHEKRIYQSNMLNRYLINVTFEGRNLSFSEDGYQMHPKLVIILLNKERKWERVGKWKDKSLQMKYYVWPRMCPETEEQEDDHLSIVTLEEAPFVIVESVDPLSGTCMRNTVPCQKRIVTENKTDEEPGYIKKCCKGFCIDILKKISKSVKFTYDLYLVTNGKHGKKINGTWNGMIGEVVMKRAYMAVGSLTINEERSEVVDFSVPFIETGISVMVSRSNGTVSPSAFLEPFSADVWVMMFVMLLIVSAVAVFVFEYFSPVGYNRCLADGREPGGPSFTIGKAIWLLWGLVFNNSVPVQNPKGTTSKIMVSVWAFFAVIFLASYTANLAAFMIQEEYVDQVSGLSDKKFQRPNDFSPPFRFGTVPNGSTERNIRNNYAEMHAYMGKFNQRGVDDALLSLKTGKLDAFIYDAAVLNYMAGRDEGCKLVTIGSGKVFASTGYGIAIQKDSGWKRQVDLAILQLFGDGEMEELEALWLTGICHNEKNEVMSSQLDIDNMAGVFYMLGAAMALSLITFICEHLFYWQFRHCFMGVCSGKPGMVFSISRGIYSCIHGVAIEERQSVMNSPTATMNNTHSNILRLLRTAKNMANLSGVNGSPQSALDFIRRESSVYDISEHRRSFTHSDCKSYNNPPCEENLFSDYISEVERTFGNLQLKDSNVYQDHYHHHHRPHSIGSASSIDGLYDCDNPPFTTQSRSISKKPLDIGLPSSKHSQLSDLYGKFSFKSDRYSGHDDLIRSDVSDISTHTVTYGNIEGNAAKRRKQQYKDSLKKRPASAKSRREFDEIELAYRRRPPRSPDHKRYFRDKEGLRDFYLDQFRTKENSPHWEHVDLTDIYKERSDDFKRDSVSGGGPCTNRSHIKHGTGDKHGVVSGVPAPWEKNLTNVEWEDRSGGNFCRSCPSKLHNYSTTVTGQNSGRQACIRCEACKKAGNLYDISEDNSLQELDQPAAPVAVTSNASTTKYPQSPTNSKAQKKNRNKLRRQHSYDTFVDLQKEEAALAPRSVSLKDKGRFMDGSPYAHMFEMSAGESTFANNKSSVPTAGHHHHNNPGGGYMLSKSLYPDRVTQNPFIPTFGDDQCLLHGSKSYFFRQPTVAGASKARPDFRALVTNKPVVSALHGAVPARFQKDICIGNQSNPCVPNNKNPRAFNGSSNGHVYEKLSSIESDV

On to `Cc1nnc(Cn2ncc3ncc(-c4ccc(F)c(Cl)c4)cc32)o1` [Example 92, 2-[[6-(3-Chloro-4-fluoro-phenyl)pyrazolo[4,3-b]pyridin-1-yl]methyl]-5-methyl-1,3,4-oxadiazole], for which the IC50 stood at 90 nM.
As for `Cc1ncc(Cn2ncc3ncc(-c4ccc(F)c(OC(F)F)c4)cc32)o1` [Example 60, 5-[[6-[3-(Difluoromethoxy)-4-fluoro-phenyl]pyrazolo[4,3-b]pyridin-1-yl]methyl]-2-methyl-oxazole], the IC50 is 559 nM.
The value for `Cc1c(F)ccc(-c2cnc3cnn(Cc4cccnc4)c3c2)c1F` [Example 245, 6-(2,4-Difluoro-3-methyl-phenyl)-1-(3-pyridylmethyl)pyrazolo[4,3-b]pyridine trifluoroacetate salt] was 33 nM; that for `Cc1nc(Cn2ncc3ncc(-c4ccc(F)c(C(F)F)c4)cc32)co1` [Example 55, 4-[[6-[3-(Difluoromethyl)-4-fluoro-phenyl]pyrazolo[4,3-b]pyridin-1-yl]methyl]-2-methyl-oxazole] was 285 nM.
The value for `Fc1ccc(Cn2ncc3ncc(-c4cccc(C(F)(F)F)c4)cc32)cn1` [Example 169, 1-[(6-Fluoro-3-pyridyl)methyl]-6-[3-(trifluoromethyl)phenyl]pyrazolo[4,3-b]pyridine] was 234 nM.
The value for `N#Cc1cncc(Cn2ncc3ncc(-c4ccc(C(F)F)s4)cc32)c1` [Example 142, 5-[[6-[5-(Difluoromethyl)-2-thienyl]pyrazolo[4,3-b]pyridin-1-yl]methyl]pyridine-3-carbonitrile] was 219 nM; that for `Cc1csc(-c2cnc3cnn(Cc4cccnc4)c3c2)c1` [Example 137, 6-(4-Methyl-2-thienyl)-1-(3-pyridylmethyl)pyrazolo[4,3-b]pyridine] was 116 nM.
With `COc1ccc(Cn2ncc3ncc(-c4ccc(F)c(OC(F)F)c4)cc32)cn1` [Example 227, 6-[3-(Difluoromethoxy)-4-fluoro-phenyl]-1-[(6-methoxy-3-pyridyl)methyl]pyrazolo[4,3-b]pyridine], the IC50 came out at 1620 nM.
With `Cc1cc(Cn2ncc3ncc(-c4cccc(C(F)(F)F)c4)cc32)n(C)n1` [Example 37, 1-[(2,5-Dimethylpyrazol-3-yl)methyl]-6-[3-(trifluoromethyl)phenyl]pyrazolo[4,3-b]pyridine] the figure was 3950 nM.
With `Cc1cnc(Cn2ncc3ncc(-c4ccc(F)c(C(F)F)c4)cc32)s1` [Example 65, 2-[[6-[3-(Difluoromethyl)-4-fluoro-phenyl]pyrazolo[4,3-b]pyridin-1-yl]methyl]-5-methyl-thiazole] the figure was 84 nM.
With `Cc1cnc(Cn2ncc3ncc(-c4cccc(C(F)(F)F)c4)cc32)nc1` [Example 287, 1-[(5-Methylpyrimidin-2-yl)methyl]-6-[3-(trifluoromethyl)phenyl]pyrazolo[4,3-b]pyridine] the figure was 3240 nM; with `Fc1ccc(-c2cnc3cnn(Cc4cn[nH]c4)c3c2)cc1C(F)F` [Example 38, 6-[3-(Difluoromethyl)-4-fluoro-phenyl]-1-(1H-pyrazol-4-ylmethyl)pyrazolo[4,3-b]pyridine], 226 nM; with `CNc1nnc(Cn2ncc3ncc(-c4ccc(F)c(OC(F)F)c4)cc32)s1` [Example 15, 5-[[6-[3-(Difluoromethoxy)-4-fluoro-phenyl]pyrazolo[4,3-b]pyridin-1-yl]methyl]-N-methyl-1,3,4-thiadiazol-2-amine], greater than 2990 nM.
For the compound `FC(F)Oc1cc(-c2cnc3cnn(Cc4cncnc4)c3c2)ccc1Cl` [Example 279, 6-[4-Chloro-3-(difluoromethoxy)phenyl]-1-(pyrimidin-5-ylmethyl)pyrazolo[4,3-b]pyridine], the IC50 is 90 nM.
Take `Cc1nnc(Cn2ncc3ncc(-c4ccc(F)c(C)c4F)cc32)o1` [Example 118, 2-[[6-(2,4-Difluoro-3-methyl-phenyl)pyrazolo[4,3-b]pyridin-1-yl]methyl]-5-methyl-1,3,4-oxadiazole]: the IC50 is 35 nM.
As to `Cc1ccc(Cn2ncc3ncc(-c4ccc(F)c(OC(F)F)c4)cc32)nn1` [Example 264, 6-[3-(Difluoromethoxy)-4-fluoro-phenyl]-1-[(6-methylpyridazin-3-yl)methyl]pyrazolo[4,3-b]pyridine], the IC50 was 626 nM.
Consider `Cc1nccc(Cn2ncc3ncc(-c4ccc(F)c(OC(F)F)c4)cc32)n1` [Example 284, 6-[3-(Difluoromethoxy)-4-fluoro-phenyl]-1-[(2-methylpyrimidin-4-yl)methyl]pyrazolo[4,3-b]pyridine], for which the IC50 came to 942 nM.
`COc1cncc(Cn2ncc3ncc(-c4cc(F)c(F)c(F)c4)cc32)c1` [Example 252, 1-[(5-Methoxy-3-pyridyl)methyl]-6-(3,4,5-trifluorophenyl)pyrazolo[4,3-b]pyridine]: the IC50 is 382 nM.
As for `Cc1ncc(Cn2ncc3ncc(-c4ccc(Cl)c(C)c4)cc32)cn1` [Example 286, 6-(4-Chloro-3-methyl-phenyl)-1-[(2-methylpyrimidin-5-yl)methyl]pyrazolo[4,3-b]pyridine], the IC50 turned out to be 3020 nM.
In the case of `COc1cncc(Cn2ncc3ncc(-c4ccc(F)c(OC(F)F)c4)cc32)c1` [Example 230, 6-[3-(Difluoromethoxy)-4-fluoro-phenyl]-1-[(5-methoxy-3-pyridyl)methyl]pyrazolo[4,3-b]pyridine], the IC50 worked out at 48 nM.
With `Fc1ccc(-c2cnc3cnn(Cc4nnc(-c5ccccc5)o4)c3c2)cc1C(F)F` [Example 103, 2-[[6-[3-(Difluoromethyl)-4-fluoro-phenyl]pyrazolo[4,3-b]pyridin-1-yl]methyl]-5-phenyl-1,3,4-oxadiazole], the IC50 is greater than 2990 nM.
With `Cc1nnc(Cn2ncc3ncc(-c4ccc(Cl)c(C(F)F)c4)cc32)s1` [Example 131, 2-[[6-[4-Chloro-3-(difluoromethyl)phenyl]pyrazolo[4,3-b]pyridin-1-yl]methyl]-5-methyl-1,3,4-thiadiazole] the figure was 57 nM.
Regarding `N#Cc1cncc(Cn2ncc3ncc(-c4cccc(C(F)(F)F)c4)cc32)c1` [Example 3, 5-[[6-[3-(Trifluoromethyl)phenyl]pyrazolo[4,3-b]pyridin-1-yl]methyl]pyridine-3-carbonitrile], the IC50 came out at 483 nM.
The value for `FC(F)(F)c1cccc(-c2cnc3cnn(Cc4cnccn4)c3c2)c1` [Example 5, 1-(Pyrazin-2-ylmethyl)-6-[3-(trifluoromethyl)phenyl]pyrazolo[4,3-b]pyridine dihydrochloride salt] was 237 nM; that for `Cc1cncc(Cn2ncc3ncc(-c4ccc(F)c(C)c4F)cc32)c1` [Example 246, 6-(2,4-Difluoro-3-methyl-phenyl)-1-[(5-methyl-3-pyridyl)methyl]pyrazolo[4,3-b]pyridine] was 52 nM; that for `Cc1nnc(Cn2ncc3ncc(-c4ccc(F)c(C(F)F)c4)cc32)n1C` [Example 75, 6-[3-(Difluoromethyl)-4-fluoro-phenyl]-1-[(4,5-dimethyl-1,2,4-triazol-3-yl)methyl]pyrazolo[4,3-b]pyridine] was 139 nM.
Regarding `FC(F)(F)c1cccc(-c2cnc3cnn(Cc4cnccc4C(F)(F)F)c3c2)c1` [Example 176, 6-[3-(Trifluoromethyl)phenyl]-1-[[4-(trifluoromethyl)-3-pyridyl]methyl]pyrazolo[4,3-b]pyridine], the IC50 came to 1300 nM.
Take `Fc1cncc(Cn2ncc3ncc(-c4ccc(F)c(Cl)c4)cc32)c1` [Example 195, 6-(3-Chloro-4-fluoro-phenyl)-1-[(5-fluoro-3-pyridyl)methyl]pyrazolo[4,3-b]pyridine]: the IC50 is 25 nM.
For `COc1cccc(Cn2ncc3ncc(-c4ccc(F)c(C(F)F)c4)cc32)n1` [Example 205, 6-[3-(Difluoromethyl)-4-fluoro-phenyl]-1-[(6-methoxy-2-pyridyl)methyl]pyrazolo[4,3-b]pyridine], the IC50 was 177 nM.
Take `Cc1nccc(Cn2ncc3ncc(-c4ccc(F)c(C(F)F)c4)cc32)n1` [Example 282, 6-[3-(Difluoromethyl)-4-fluoro-phenyl]-1-[(2-methylpyrimidin-4-yl)methyl]pyrazolo[4,3-b]pyridine]: the IC50 turned out to be 387 nM.
For `Cc1cc(-c2cnc3cnn(Cc4cncc(F)c4)c3c2)ccc1F` [Example 183, 6-(4-Fluoro-3-methyl-phenyl)-1-[(5-fluoro-3-pyridyl)methyl]pyrazolo[4,3-b]pyridine], the IC50 amounted to 21 nM.
For the compound `FC(F)(F)c1cccc(-c2cnc3cnn(Cc4cocn4)c3c2)c1` [Example 46, 4-[[6-[3-(Trifluoromethyl)phenyl]pyrazolo[4,3-b]pyridin-1-yl]methyl]oxazole], the IC50 is 538 nM.

As a reminder, the IC50 is the concentration that gives 50% inhibition.
